Patent publication US9650664B2, “Use of photocleavable compounds” (FEMTONICS KFT, priority 2011, dated 2017)

What was measured:
[1] = spontaneous hydrolysis in ACSF; format: physicochemical
Procedure: […] The solution was sampled at the beginning of the storage and 48 hours later and 4-methoxy-5,7-dinitro-2,3-dihydro-1H-indole was identified from the hydrolysis products by using LCMS method. The compound was identified by the peak of its molecule weight at 240. The sample taken after 48 hours was measured with HPLC equipment. Without correction 46.7% of DNI-Glu*TFA hydrolysed.

[2] = system: Hippocampus neurons in CA1 stratum radiatum; assay: spontaneous activity of the cell (EPSP frequency), voltage-clamp test; format: cell-based, Wistar rats
Procedure: (§1) Acute hippocampus slices were prepared from 16-20 day old Wistar rats using isoflurane anaesthesia followed by swift decapitation. The process was in accordance with the Hungarian Act of Animal Care and Experimentation (1998. XXVIII, section 243). Coronal (300 μm) brain slices were cut with a vibratome and stored at room temperature in artificial cerebrospinal fluid (ACSF). The composition of the ACSF solution is described above.
(§2) Hippocampus neurons in CA1 stratum radiatum near the border of the stratum lacunosum-moleculare were visualized using 900 nm infrared oblique illumination. Current-clamp recordings were made at 32° C. (MultiClamp 700B, Digidata 1440; Molecular Devices, Sunnyvale, Calif., USA) with glass electrodes (6-9 MΩ) filled with (in mM): 125 K-gluconate, 20 KCl, 10 HEPES, 10 Di-Tris-salt phosphocreatine, 0.3 Na-GTP, 4 Mg-ATP, 10 NaCl, 0.06 Oregon Green BAPTA-1 (OGB-1) and biocytin. Cells with a resting membrane potential more negative than −50 mV were accepted. The recorded cells were classified as nonpyramidal cells according to their electrophysiological properties.
A.) Using the test setup of the two-photon excitation process according to Example 16 spontaneous potential changes of the observed cell was measured.
At the beginning of the experiment the control level of potential changes (EPSP) was measured in the absence of DNI-Glu. The measured fluctuation is shown in FIG. 1/A. Following the test DNI-Glu (2.5 mM) was added to the measuring cell. The measured fluctuation is shown in FIG. 1/B. Then 0.1-0.2 unit/ml L-glutamic acid dehydrogenase enzyme and 200 μM NADP (β-Nicotinamide adenine dinucleotide phosphate) were added.
B.) The experiment described in point A.) was repeated 8 times using other cells in each case. The column diagram can be seen on the left side. The average of the control level is shown in column a.). The average of the change due to the caged compound is shown in column b.), while the average level after the addition of the enzyme in column c.).

[3] = according to WO2008/094922; cited from earlier work
[4] = system: Hippocampus neurons in CA1 stratum radiatum; assay: two-photon uncaging on acute hippocampus slices with neutralizing agents (EPSP, Ca2+ transient); format: cell-based, Wistar rats; details: 2.5 mM
Procedure: as §1, §2
Two-photon imaging started 15-20 minutes after attaining the whole-cell configuration on a two-photon laser-scanning system (Femto2D, Femtonics Ltd., Budapest) using femtosecond lasers (830-850 nm), Mai Tai HP, SpectraPhysics, Mountain View, Calif.). […]

hippocampus neurons = details: according to WO2008/094922; cited from earlier work
[5] = weight increase on storage (hygroscopicity); format: physicochemical; details: 25° C. 50% relative humidity, after 72 hours storage
Procedure: We measured the weight increase of MNI-Glubase and its salts with hydrochloric and trifluoroacetic acid at 25° C. 50% relative humidity.

[6] = system: hippocampal pyramide cell; assay: two-photon stimulation of a hippocampal pyramide cell (Example 20); format: cell-based, Wistar rats; details: for Calcium tranziens by two-photon stimulation / somatically recorded EPSP by two-photon stimulation: 2.5 mM, 740 nm, with L-glutamic acid dehydrogenase and NADP; for toxicity: pyramid cell response to 500 ms -100, 0 and 125 pA current injection, waveform after stimulation
Procedure: as §1, §2
a.) After achieving the whole-cell mode and filling the interneurons with 60 μM OGB-1, the bath solution was exchanged to ACSF containing MNI-Glu-TFA [2.5 mM, Tocris]. Photolysis of MNI-Glu-TFA was performed with 710-830 nm ultrafast, pulsed laser light (Mai Tai HP Deep See, SpectraPhysics, Mountain View, Calif.). The intensity of the uncaging laser beam was controlled with an electro-optical modulator (Model 350-80 LA, Conoptics). Dispersion compensation was set to have maximal response at the depth of uncaging (50-80 μm from surface). The uncaging laser beam was coupled into the imaging optical pathway with a dichroic mirror (custom laser combiner, z750bcm; Chroma Technology Corp, Rockingham, USA). Chromatic aberration was compensated at the focal plane. Radial and axial beam (imaging and photochemical stimulating) alignment errors were held below 100 nm and 300 nm, respectively. Imaging was interleaved with two-photon glutamate uncaging periods, when galvanometers jumped to the maximum 15-25 selected locations (<60 μs jump time) and returned back to the 3D or 2D trajectory thereafter. The position of uncaging sites was finely adjusted according to background images taken. Photolysis of caged glutamate was performed in “clustered” (0.8±0.1 μm distance between inputs) patterns along the dendrite. The single spot uncaging time and laser intensity was set to reproduce uEPSPs and mEPSPs induced by the local application of high osmolar external solution at similar distances from the soma (amplitude of unitary gluEPSP: 0.56±0.09 mV, mEPSPs: 0.58±0.1, uEPSP: 0.55±0.12; exposure time 0.2-0.5 ms/input). Small drifts of the sample (on the order of 0.1-0.2 μm) during the mapping were compensated manually according to regularly taken background images. b.) After the test the perfusion rate was set to 10 ml/min in order to increase the exchange rate of ACSF containing 2.5 mM DNI-Glu*TFA used in the subsequent test. The test was repeated with the same setting of the equipment on the same dendrite section.
The experiment was carried out according to Example 16 with the difference that the cell was filled with calcium sensitive dye (Fluo4) and anatomical dye (ALEXA 594). The experiments were carried out in accordance of the Example 16 with the following differences: after patch clamp the perfusion solution exchange to ACSF containing 2.5 mM iDMPO-DNI-Glutamic acid*2TFA and, or ACSF containing 2.5 mM iDMBO-DNI-Glutamic acid*2TFA, 0.1-0.2 units/ml of L-glutamic acid dehydrogenase and β-Nicotinamide adenine dinucleotide phosphate for the second measurement. The β-Nicotinamide adenine dinucleotide phosphate was kept in a concentration of 50-100 μM during the experiments. All chemical agents (cage compound, dehidrogenase, NADP apply into the bath). During the experiments the evaporation loss of dH2O was continuously refilled. […]

Q: Which hydrolysed ([1]; 0.06 mg/ml in ACSF, stored at 32° C., 48 hours, HPLC, without correction) does the source give for COc1c([N+](=O)[O-])cc([N+](=O)[O-])c2c1CCN2C(=O)CCC(N)C(=O)O.O=C(O)C(F)(F)F (stereo not drawn) [DNI-Glu*TFA, trifluoroacetic acid salt of 2-amino-5-(4′-methoxy-5′,7′-dinitro-2′,3′-dihydro-indol-1′-yl)-5-oxo-pentanoic acid] here?
A: 46.7%

Q: What about the “speed of the formation of the glutamic acid” value ([1]; in 12 ml of ACSF) of the same compound?
A: 1 µmol/min

Q: For COc1c([N+](=O)[O-])cc([N+](=O)[O-])c2c1CCN2C(=O)CCC(N)C(=O)O (stereo not drawn) [DNI-Glu, 2-amino-5-(4′-methoxy-5′,7′-dinitro-2′,3′-dihydro-indol-1-yl)-5-oxo-pentanoic acid], which “frequency of EPSP / spontaneous responses after addition of glutamate dehydrogenase enzyme” value ([2]; DNI-Glu 2.5 mM, then L-glutamic acid dehydrogenase and NADP) is on record?
A: restored to the control level

Q: And the “EPSP Frequency MEAN” value ([2]; DNI-Glu 2.5 mM, enzyme = 0.1-0.2 unit/ml L-glutamic acid dehydrogenase and 200 μM NADP, repeated 8 times, other cells)?
A: 3.87 Hz

Q: What about the “frequency of EPSP on addition to the perfusion solution” value ([2]; DNI-Glu added, no enzyme) of the same compound?
A: increased

Q: And the “dissolution in physiological solutions” value [3]?
A: so bad

Q: And the “excitatory postsynaptic potential (EPSP) resulted by irradiation, compared with MNI-Glu” value ([4]; FIG. 2/A)?
A: significantly higher

Q: And the “Ca2+ transient signal as a response of the irradiation, compared with MNI-Glu” value ([4]; FIG. 2/B)?
A: significantly higher

Q: What about the “electrical signals in two-photon irradiation experiments” value (hippocampus neurons) of the same compound?
A: no electrical signals

Q: With COc1ccc([N+](=O)[O-])c2c1CCN2C(=O)CC[C@H](N)C(=O)O.Cl [MNI-Glu HCl salt] as the compound, how does the weight increase [5] read?
A: 13.6%

Q: For COc1ccc([N+](=O)[O-])c2c1CCN2C(=O)CCC(N)C(=O)O.O=C(O)C(F)(F)F (stereo not drawn) [MNI-Glu trifluoroacetic acid salt], which weight increase [5] is on record?
A: 4%

Q: With COc1ccc([N+](=O)[O-])c2c1CCN2C(=O)CCC(N)C(=O)O (stereo not drawn) [MNI-Glubase, 2-amino-5-(4-methoxy-7-nitro-2,3-dihydro-indol-1-yl)-5-oxo-pentanoic acid] as the compound, how does the weight increase [5] read?
A: 20%

Q: With “di-trifluoroacetic acid salt of 2-amino-1-(4′-dimethylamino-isobutoxy-5′,7′-dinitro-2′,3′-dihydro-indol-1′-yl)-5-oxo-pentanoic [iDMBO-DNI-Glu TFA]” as the compound, how does the “Calcium tranziens by two-photon stimulation” value [6] read?
A: the same as Panel (D)

Q: What about the “somatically recorded EPSP by two-photon stimulation” value [6] of the same compound?
A: the same as Panel (D)

Q: What about the toxicity [6] of the same compound?
A: not detected

Q: Which “Calcium tranziens by two-photon stimulation” value [6] does the source give for “di-trifluoroacetic acid salt of 2-amino-1-(4′-dimethylamino-isopropoxy-5′,7′-dinitro-2′,3′-dihydro-indol-1′-yl)-5-oxo-pentanoic [iDMPO-DNI-Glu TFA]” here?
A: could evoke

Q: And the “somatically recorded EPSP by two-photon stimulation” value [6]?
A: could evoke

Q: What about the toxicity [6] of the same compound?
A: not detected
